Consider 3 molecules from patent US20070259893A1, “Pyrazolopyrimidines” (BAYER CROPSCIENCE AKTIENGESELLSCHAFT, priority 2003, published 2007).

Each structure is given as a SMILES string.

Series [1] is described as follows: logP by HPLC. The class given is physicochemical.
Series [2] concerns Botrytis cinerea. In words: Botrytis test (bean)/protective. It counts as in vivo. The note with it: bean plants, protective spray, application rate 500 g/ha, evaluated 2 days after inoculation. On the procedure: Botrytis Test (Bean)/Protective
Solvents: 24.5 parts by weight of acetone
• 24.5 parts by weight of dimethylacetamide Emulsifier: 1.0 part by weight of alkylaryl polyglycol ether
To produce a suitable preparation of active compound, 1 part by weight of active compound is mixed with the stated amount of solvents and emulsifier, and the concentrate is diluted with water to the desired concentration.
To test for protective activity, young plants are sprayed with the preparation of active compound at the stated application rate. After the spray coating has dried on, 2 small pieces of agar colonized by Botrytis cinerea are placed onto each leaf. The inoculated plants are placed in a dark chamber at about 20° C. and 100% relative atmospheric humidity.
The size of the infected areas on the leaves is evaluated 2 days after the inoculation. 0% means an efficacy which corresponds to that of the control, whereas an efficacy of 100% means that no infection is observed.

One may read the chromatographic logP as lipophilicity estimated from chromatographic retention. Low values mean a more hydrophilic compound, high ones a more lipophilic compound. `CC1CCN(c2c(-c3ccc(F)cc3Cl)c(Cl)nc3c(C(=O)C(F)(F)F)cnn23)CC1` [Example 1, 3-trifluoroacetyl-5-chloro-6-(2-chloro-4-fluorophenyl)-7-(4-methylpiperidino)-pyrazolo[1,5-a]pyrimidine] yielded a chromatographic logP in series [1] of 5.44. Further, in series [2], the efficacy result is recorded as “more than 90%”. Regarding `CC(C)C(C)Nc1c(-c2ccc(F)cc2Cl)c(Cl)nc2c(C(=O)C(F)(F)F)cnn12` (stereo not shown) [Example 2], in series [1], the chromatographic logP came to 5.08.

In turn, `CC(Nc1c(-c2ccc(F)cc2Cl)c(Cl)nc2c(C#N)cnn12)C(C)(C)C` (stereo not shown) [Example 4] returned a chromatographic logP in series [1] of 4.92.
